Laboratory results published in publication PMC10634346 (Cancer Research Communications, 2023).

Key:
[1] = system: MYC mRNA in SU-DHL-10 tumors; experiment: Pharmacodynamics in SU-DHL-10 xenograft tumors, MYC mRNA qPCR; format: in vivo, C.B-17 SCID mice; details: single dose 10 and 15 mg/kg
Procedure: (§1) Total RNA was extracted from blood of patients and cell lines using RNeasy Plus Mini Kit (QIAGEN, #74136) and cDNA prepared with the Maxima First Strand cDNA Synthesis Kit for RT-PCR (Thermo Fisher Scientific, K1642) according to manufacturer's instructions. The integrity of purified total RNA was evaluated using an Agilent 2100 Bioanalyzer system and RNA 6000 Nano Kit (Agilent, #5067-1511). Differential gene expression analysis was performed (Fios Genomics) from RNA-seq data (Discovery Life Sciences). MYC and MCL1 mRNA levels were measured by qPCR in vitro and in vivo, using a Taqman qPCR system (Thermo Fisher Scientific), TaqMan Fast Universal PCR Master Mix (2X) no AmpErase (#4352042) and TaqMan probes for MYC (Hs00153408_m1) and MCL1 (Hs03043899_m1). RNA-seq data were analyzed using DESeq2 ([35]).
(§2) A total of 10 × 10^6 SU-DHL-10 cells were inoculated subcutaneously into 6–8 weeks old female C.B-17 SCID mice (Iffa Credo, Brussels). The mice were randomized to treatment groups at a tumor volume of 63–104 mm^3 and treated (intravenously, once weekly) with 10 mg/kg enitociclib (60% PEG400, 10% ethanol, water), 15 mg/kg enitociclib (30% PEG400, 10% ethanol, water), or corresponding vehicle treatments. Mice were around 10–12 weeks of age at the start of study. All animal experiments were performed under the national animal welfare laws of Germany and approved by the local authorities.

[2] = system: RNA polymerase II Ser2 phosphorylation (p-Ser2) in SU-DHL-4 cells; experiment: In vitro washout, p-Ser2 Western blot, SU-DHL-4; format: cell-based, human; details: 4-hour treatment then washout
Procedure: Evaluation of the pharmacodynamic extent and duration of CDK9 inhibition were performed in vitro using the human DLBCL cell lines SU-DHL-4 and SU-DHL-10, harboring MYC amplification and MYC overexpression with P57T mutation, respectively. Cells were seeded 18 hours prior to treatment for 4 hours with one of three CDK9 inhibitors, enitociclib (0.25 and1 µmol/L), atuveciclib (1 µmol/L) or KB-0742 (1 µmol/L), cells were washed, and incubation continued until 48 hours posttreatment. Samples were collected before treatment (−4), immediately after treatment (0), and at 1, 2, 4, 8, 12, 16, 24, and 48 hours after washout for RNA sequencing (RNA-seq), qPCR, and Western blotting analyses.
(§3) The levels of p-Ser2, p-Ser5 and total RNA polymerase II, Myc, Mcl-1, cleaved PARP (cPARP), and cleaved Caspase 3 were assessed by Western blotting and quantified near-infrared detection and background corrected quantification of fluorescence intensity on an Odyssey Imaging System with IRDye secondary antibodies (LI-COR Biosciences). For quantification, the protein levels were normalized to GAPDH or HSP90, expressed as a ratio to DMSO or vehicle control at matched timepoints. The normalized relative protein levels of p-Ser2 were used for a treatment effect comparison by performing an ANOVA using PROC MIXED in SAS. The ANOVA model included treatment, timepoints and their interactions as fixed effects. The least square means (LSM), differences between the LSMs and associated P values were generated. The following primary antibodies were used: Rpb1 NTD (D8L4Y) rabbit antibody [Cell Signaling Technology (CST), #14958], anti-RNA polymerase II subunit B1 (phospho CTD Ser-2, clone 3E10) rat antibody (Merck, 04-1571-I), recombinant anti-c-MYC rabbit antibody (Y69; Abcam, #ab32072), MCL1 (D5V5L) rabbit antibody (CST, #39224), cleaved-PARP (Asp214) (E2T4K) mouse antibody (CST, #32563), HSP90 (C45G5) rabbit antibody (CST, #4877), and GAPDH mouse antibody (Zytomed Systems, #ZYT-RGM2-6C5).

[3] = Body weight of treated xenograft mice; format: in vivo, C.B-17 SCID mice; details: 15 mg/kg i.v. once weekly
Procedure: as §2

[4] = system: p-Ser5 RNA polymerase II in SU-DHL-10 tumors; experiment: Pharmacodynamics in SU-DHL-10 xenograft tumors, p-Ser5; format: in vivo, C.B-17 SCID mice; details: single dose, all doses (5, 10, 15 mg/kg)
Procedure: as §3, with “#ZYT-RGM2-6C5). […]” for “#ZYT-RGM2-6C5).”

[5] = system: p-Ser2 RNA polymerase II in SU-DHL-10 tumors; experiment: Pharmacodynamics in SU-DHL-10 xenograft tumors, p-Ser2; format: in vivo, C.B-17 SCID mice
Procedure: as §3, with “#ZYT-RGM2-6C5). […]” for “#ZYT-RGM2-6C5).”

[6] = Clinical pharmacokinetics, plasma LC/MS-MS (NCT02635672); format: in vivo, human; details: subject 3, dose lowered from 30 to 22.5 mg, not included in average
SU-DHL-4 = experiment: CellTiter-Glo cell viability, SU-DHL-4; format: cell-based; details: Homo sapiens
Procedure: Human DLBCL cell lines SU-DHL-4 (#ACC 495) and SU-DHL-10 (#ACC 576) were obtained from DSMZ (German Collection of Microorganisms and Cell Cultures). The supplier used PCR-based DNA profiling of polymorphic short tandem repeats for authentication and Mycoplasma testing prior to shipment. Cells were cultured in suspension at 37°C in a humidified atmosphere containing 5% CO2. CDK9 inhibitors KB-0742 (MedChemExpress, #HY-137478A), enitociclib, and atuveciclib ([…] Pharma, Inc.) were used. A subset of 35 lymphoma cell lines is from a 500-cell line panel where the effect of enitociclib on cell viability using CellTiter-Glo luminescent cell viability was determined (OmniScreen, CrownBioscience). Genetic status and gene expression level for MYC and MCL1 was obtained from CrownBioscience.

[7] = system: MCL1 mRNA in SU-DHL-10 tumors; experiment: Pharmacodynamics in SU-DHL-10 xenograft tumors, MCL1 mRNA qPCR; format: in vivo, C.B-17 SCID mice; details: single dose; depletion sustained for 8 hours postdose at the two higher dose levels
Procedure: as §1, §2

## COc1cc(F)ccc1-c1cc(Nc2cc(CS(C)(=N)=O)ccn2)ncc1F (stereo not drawn) [enitociclib]
[1]
  MYC mRNA in tumors (in words): depleted by 4 hours postdose
[2]; 0.25 µmol/L
  decrease of p-Ser2 levels: 50%
  duration of p-Ser2 decrease: up to 48 hours
[2]; 1 µmol/L
  duration of p-Ser2 decrease: 48 h
[3]
  maximum body weight change: −12.5%
[4]
  p-Ser5 reductions in tumors (in words): not robust
[5]; single dose 5 mg/kg, for 8 hours
  decrease of p-Ser2 levels in tumors: greater than 50%
[5]; single dose 10 and 15 mg/kg, 8 hours postdose timeframe
  p-Ser2 in tumors (in words): depletion of p-Ser2
[6]; human, plasma, intravenous, 22.5 mg, read-out: Multiple dose tmax
  Tmax: 29 min
[6]
  Multiple dose AUC0-t: 1,670^b µg^ah/L
SU-DHL-4
  IC50: 0.043 µM
[7]
  MCL1 mRNA levels in tumors (in words): reduced by 4 hours postdose
